Measured values: publication PMC5218480 (PLoS ONE, 2017)

System: MV-4-11 cells
Test: Gene expression microarray analysis (Affymetrix PrimeView) and GSEA
Assay type: cell-based, human
Parameters: RFU PODN (11730768_x_at) / Fold change /veh PODN (11730768_x_at) / RFU LINC00158 (11744669_a_at) / Fold change /veh LINC00158 (11744669_a_at) / RFU DUSP10 (11751237_a_at) / Fold change /veh DUSP10 (11751237_a_at) / RFU ID3 (11757404_x_at) / Fold change /veh ID3 (11757404_x_at) / RFU PLEKHG5 (11737974_s_at) / Fold change /veh PLEKHG5 (11737974_s_at) / RFU LRRC4B (11730491_at) / Fold change /veh LRRC4B (11730491_at) / RFU GIMAP4 (11747438_a_at) / Fold change /veh GIMAP4 (11747438_a_at) / RFU KRT8 (11758183_x_at) / Fold change /veh KRT8 (11758183_x_at) / RFU CNN1 (11734310_a_at) / Fold change /veh CNN1 (11734310_a_at) / RFU VPS37D (11726825_at) / Fold change /veh VPS37D (11726825_at) / RFU C10orf10 (11716522_x_at) / Fold change /veh C10orf10 (11716522_x_at) / RFU KIR2DL2 /// KIR2DL4 /// KIR2DL5A /// KIR2DL5B /// KIR2DS1 /// KIR2DS2 /// KIR2DS3 /// KIR2DS4 /// KIR3DL3 /// KIR3DL3 /// KIR3DS1 (11738374_at) / Fold change /veh KIR2DL2 /// KIR2DL4 /// KIR2DL5A /// KIR2DL5B /// KIR2DS1 /// KIR2DS2 /// KIR2DS3 /// KIR2DS4 /// KIR3DL3 /// KIR3DL3 /// KIR3DS1 (11738374_at) / RFU C1QL1 (11718748_at) / Fold change /veh C1QL1 (11718748_at) / RFU TMPRSS4 (11747572_a_at) / Fold change /veh TMPRSS4 (11747572_a_at) / RFU HAMP (11756126_x_at) / Fold change /veh HAMP (11756126_x_at) / RFU RNFT2 (11725882_a_at) / Fold change /veh RNFT2 (11725882_a_at) / RFU NR4A2 (11747474_a_at) / Fold change /veh NR4A2 (11747474_a_at) / RFU ABCC12 (11746883_a_at) / Fold change /veh ABCC12 (11746883_a_at) / RFU TMEM136 (11760407_x_at) / Fold change /veh TMEM136 (11760407_x_at) / RFU CLDN22 /// WWC2 (11732394_at) / Fold change /veh CLDN22 /// WWC2 (11732394_at) / RFU HLA-DPB1 (11760878_x_at) / Fold change /veh HLA-DPB1 (11760878_x_at) / RFU SPINT1 (11716480_a_at) / Fold change /veh SPINT1 (11716480_a_at) / RFU GAP43 (11754022_s_at) / Fold change /veh GAP43 (11754022_s_at) / RFU A4GNT (11735810_at) / Fold change /veh A4GNT (11735810_at) / RFU PRB3 (11715151_x_at) / Fold change /veh PRB3 (11715151_x_at) / RFU TUBB4B (11761932_at) / Fold change /veh TUBB4B (11761932_at) / RFU CAPN14 (11732068_a_at) / Fold change /veh CAPN14 (11732068_a_at) / RFU TMCC2 (11721928_a_at) / Fold change /veh TMCC2 (11721928_a_at) / RFU IRGQ (11745062_a_at) / Fold change /veh IRGQ (11745062_a_at) / RFU FAM174B (11720279_a_at) / Fold change /veh FAM174B (11720279_a_at) / RFU TMPRSS4 (11748680_a_at) / Fold change /veh TMPRSS4 (11748680_a_at) / RFU FAM212B (11763350_a_at) / Fold change /veh FAM212B (11763350_a_at) / RFU PLEKHG5 (11743358_a_at) / Fold change /veh PLEKHG5 (11743358_a_at) / RFU ZSCAN30 (11745921_a_at) / Fold change /veh ZSCAN30 (11745921_a_at) / RFU CMKLR1 (11741424_a_at) / Fold change /veh CMKLR1 (11741424_a_at) / RFU LOC101060620 /// MAPK8IP1 (11723275_at) / Fold change /veh LOC101060620 /// MAPK8IP1 (11723275_at) / RFU SPTSSB (11747773_x_at) / Fold change /veh SPTSSB (11747773_x_at) / RFU PRSS12 (11739890_at) / Fold change /veh PRSS12 (11739890_at) / RFU BIN1 (11741810_x_at) / Fold change /veh BIN1 (11741810_x_at) / RFU WNT11 (11732464_a_at) / Fold change /veh WNT11 (11732464_a_at) / RFU C10orf10 (11716521_a_at) / Fold change /veh C10orf10 (11716521_a_at) / RFU C5orf56 (11738089_at) / Fold change /veh C5orf56 (11738089_at) / RFU CYB561 (11721691_x_at) / Fold change /veh CYB561 (11721691_x_at) / RFU ANKRD19P (11752326_a_at) / Fold change /veh ANKRD19P (11752326_a_at) / RFU OR2T12 /// OR2T33 /// OR2T8 (11738714_s_at) / Fold change /veh OR2T12 /// OR2T33 /// OR2T8 (11738714_s_at) / RFU VCAN (11748164_a_at) / Fold change /veh VCAN (11748164_a_at) / RFU JSRP1 (11732532_at) / Fold change /veh JSRP1 (11732532_at) / RFU KRTAP10-11 (11738290_x_at) / Fold change /veh KRTAP10-11 (11738290_x_at) / RFU MYO3A (11730013_a_at) / Fold change /veh MYO3A (11730013_a_at) / RFU EBF3 (11725865_a_at) / Fold change /veh EBF3 (11725865_a_at) / RFU CAMK2N1 (11719241_x_at) / Fold change /veh CAMK2N1 (11719241_x_at) / RFU C5orf56 (11738088_a_at) / Fold change /veh C5orf56 (11738088_a_at) / RFU OLFML3 (11715873_a_at) / Fold change /veh OLFML3 (11715873_a_at) / RFU LOC100653217 /// NTM (11731650_a_at) / Fold change /veh LOC100653217 /// NTM (11731650_a_at) / RFU MAPK11 (11762145_a_at) / Fold change /veh MAPK11 (11762145_a_at) / RFU FIZ1 (11724087_x_at) / Fold change /veh FIZ1 (11724087_x_at) / RFU OASL (11726364_x_at) / Fold change /veh OASL (11726364_x_at) / RFU SOX15 (11748057_x_at) / Fold change /veh SOX15 (11748057_x_at) / RFU CD79A (11719716_a_at) / Fold change /veh CD79A (11719716_a_at) / RFU HIST1H1D (11736915_at) / Fold change /veh HIST1H1D (11736915_at) / RFU CASKIN2 (11723855_a_at) / Fold change /veh CASKIN2 (11723855_a_at) / RFU LOC730098 (11760151_x_at) / Fold change /veh LOC730098 (11760151_x_at) / RFU OR4N2 (11742367_at) / Fold change /veh OR4N2 (11742367_at) / RFU PRRT2 (11749266_a_at) / Fold change /veh PRRT2 (11749266_a_at) / RFU SNX32 (11753110_a_at) / Fold change /veh SNX32 (11753110_a_at) / RFU CDHR5 (11726645_a_at) / Fold change /veh CDHR5 (11726645_a_at) / RFU RCAN1 (11760418_a_at) / Fold change /veh RCAN1 (11760418_a_at) / RFU FAM167A (11723789_a_at) / Fold change /veh FAM167A (11723789_a_at) / RFU FAM26E (11764081_at) / Fold change /veh FAM26E (11764081_at) / RFU ISYNA1 (11749810_s_at) / Fold change /veh ISYNA1 (11749810_s_at) / RFU ACY1 (11761880_at) / Fold change /veh ACY1 (11761880_at) / RFU 11764098_at / Fold change /veh 11764098_at / RFU SAMD14 (11745864_x_at) / Fold change /veh SAMD14 (11745864_x_at) / RFU NPB (11741838_a_at) / Fold change /veh NPB (11741838_a_at) / RFU TMPRSS6 (11731388_a_at) / Fold change /veh TMPRSS6 (11731388_a_at) / RFU KRTAP10-2 (11738614_at) / Fold change /veh KRTAP10-2 (11738614_at) / RFU ARHGAP8 /// PRR5-ARHGAP8 (11727945_x_at) / Fold change /veh ARHGAP8 /// PRR5-ARHGAP8 (11727945_x_at) / RFU KRTAP5-7 /// NADSYN1 (11734609_at) / Fold change /veh KRTAP5-7 /// NADSYN1 (11734609_at) / RFU RASL12 (11751679_a_at) / Fold change /veh RASL12 (11751679_a_at) / RFU CDKN2B (11736163_a_at) / Fold change /veh CDKN2B (11736163_a_at) / RFU PRF1 (11729649_at) / Fold change /veh PRF1 (11729649_at) / RFU, ZNF638 /// ZNF638-IT1 / Fold change vs veh, ZNF638 /// ZNF638-IT1 / RFU, PANK3 / Fold change vs veh, PANK3 / RFU, SH3YL1 / Fold change vs veh, SH3YL1 / RFU, ZEB2 / Fold change vs veh, ZEB2 / RFU, NRIP1 / Fold change vs veh, NRIP1 / RFU, PTTG1IP / Fold change vs veh, PTTG1IP / RFU, CAPN2 / Fold change vs veh, CAPN2 / RFU, MED14 / Fold change vs veh, MED14 / RFU, SNORA58 / Fold change vs veh, SNORA58 / RFU, C1orf63 / Fold change vs veh, C1orf63 / RFU, LRRFIP1 / Fold change vs veh, LRRFIP1 / RFU, NDUFAF7 / Fold change vs veh, NDUFAF7 / RFU, SLC12A2 / Fold change vs veh, SLC12A2 / RFU, IBTK / Fold change vs veh, IBTK / RFU, ESF1 / Fold change vs veh, ESF1 / Fold change vs veh, TMEM50B / RFU, TAOK1 / Fold change vs veh, TAOK1 / RFU, ACBD3 / Fold change vs veh, ACBD3 / RFU, TMA16 / Fold change vs veh, TMA16 / RFU, RWDD3 / Fold change vs veh, RWDD3 / RFU, BCAT1 / Fold change vs veh, BCAT1 / RFU, EDEM3 / Fold change vs veh, EDEM3 / RFU, TMEM33 / Fold change vs veh, TMEM33 / RFU, WDR75 / Fold change vs veh, WDR75 / RFU, AHCTF1 / Fold change vs veh, AHCTF1 / RFU, TFRC / Fold change vs veh, TFRC / RFU, ZDHHC17 / Fold change vs veh, ZDHHC17 / RFU, NOM1 / Fold change vs veh, NOM1 / RFU, ARL8B / Fold change vs veh, ARL8B / RFU, ZBTB11 / Fold change vs veh, ZBTB11 / RFU, TAMM41 / Fold change vs veh, TAMM41 / RFU, KIAA1704 /// LOC100996395 / Fold change vs veh, KIAA1704 /// LOC100996395 / RFU, ING1 / Fold change vs veh, ING1 / RFU, TRMT61B / Fold change vs veh, TRMT61B / RFU, FUBP3 / Fold change vs veh, FUBP3 / RFU, TP53 / Fold change vs veh, TP53 / RFU, TNKS2 / Fold change vs veh, TNKS2 / RFU, ZFP14 / Fold change vs veh, ZFP14 / RFU, ACTR2 / Fold change vs veh, ACTR2 / RFU, PPP3R1 / Fold change vs veh, PPP3R1 / RFU, PIK3R1 / Fold change vs veh, PIK3R1 / RFU, HNRNPA1 / Fold change vs veh, HNRNPA1 / RFU, RNF170 / Fold change vs veh, RNF170 / RFU, ZNF28 / Fold change vs veh, ZNF28 / RFU, RNGTT / Fold change vs veh, RNGTT / RFU, OGT / Fold change vs veh, OGT / RFU, BRD1 / Fold change vs veh, BRD1 / RFU, MARS / Fold change vs veh, MARS / RFU, ZNF655 / Fold change vs veh, ZNF655 / RFU, FAHD1 / Fold change vs veh, FAHD1 / RFU, BDP1 / Fold change vs veh, BDP1 / RFU, LRRCC1 / Fold change vs veh, LRRCC1 / RFU, ARID1A / Fold change vs veh, ARID1A / RFU, ZNF146 / Fold change vs veh, ZNF146 / RFU, ZNF330 / Fold change vs veh, ZNF330 / RFU, GPN3 / Fold change vs veh, GPN3 / RFU, C9orf123 / Fold change vs veh, C9orf123 / RFU, N4BP2L2 / Fold change vs veh, N4BP2L2 / RFU, ARFIP1 / Fold change vs veh, ARFIP1 / RFU, FAM179B / Fold change vs veh, FAM179B / RFU, BCL10 / Fold change vs veh, BCL10 / RFU, UHRF1BP1L / Fold change vs veh, UHRF1BP1L / RFU, BET1 / Fold change vs veh, BET1 / RFU, CNOT2 / Fold change vs veh, CNOT2 / RFU, ZNF268 / Fold change vs veh, ZNF268 / Fold change vs veh, ZNF507 / RFU, DGCR2 / Fold change vs veh, DGCR2 / RFU, WDSUB1 / Fold change vs veh, WDSUB1 / Fold change vs veh, HSP90B1 /// MIR3652 / RFU, ADSS / Fold change vs veh, ADSS / RFU, GK / Fold change vs veh, GK / RFU, ZNF148 / Fold change vs veh, ZNF148 / RFU, TAF9 / Fold change vs veh, TAF9 / RFU, SLC1A5 / Fold change vs veh, SLC1A5 / RFU, SLMO2 / Fold change vs veh, SLMO2 / RFU, ABCC4 / Fold change vs veh, ABCC4 / RFU, LOC101060439 /// RAP1B / Fold change vs veh, LOC101060439 /// RAP1B / RFU, RFX7 / Fold change vs veh, RFX7 / RFU, GTPBP10 / Fold change vs veh, GTPBP10 / RFU, CNEP1R1 / Fold change vs veh, CNEP1R1 / RFU, BIVM-ERCC5 /// ERCC5 / Fold change vs veh, BIVM-ERCC5 /// ERCC5 / RFU, ILF3 / Fold change vs veh, ILF3 / RFU 11762660_at / Fold change /veh 11762660_at / RFU VCAN (11757783_s_at) / Fold change /veh VCAN (11757783_s_at) / RFU DDX43 (11728927_at) / Fold change /veh DDX43 (11728927_at) / RFU KRT8 (11758188_x_at) / Fold change /veh KRT8 (11758188_x_at) / RFU NKD1 (11759106_at) / Fold change /veh NKD1 (11759106_at) / RFU SRD5A1 (11742802_a_at) / Fold change /veh SRD5A1 (11742802_a_at) / RFU TPSAB1 /// TPSB2 (11721975_s_at) / Fold change /veh TPSAB1 /// TPSB2 (11721975_s_at) / RFU GSTM3 (11746129_a_at) / Fold change /veh GSTM3 (11746129_a_at) / RFU IL23R (11737362_x_at) / Fold change /veh IL23R (11737362_x_at) / RFU TMEM51 (11727254_a_at) / Fold change /veh TMEM51 (11727254_a_at) / RFU PIWIL2 (11732686_x_at) / Fold change /veh PIWIL2 (11732686_x_at) / RFU ORM1 (11744905_x_at) / Fold change /veh ORM1 (11744905_x_at) / RFU CCDC152 (11743942_at) / Fold change /veh CCDC152 (11743942_at) / RFU ECM1 (11717891_a_at) / Fold change /veh ECM1 (11717891_a_at) / RFU IL23R (11748794_a_at) / Fold change /veh IL23R (11748794_a_at) / RFU TNFAIP8L3 (11732012_x_at) / Fold change /veh TNFAIP8L3 (11732012_x_at) / RFU MBOAT4 (11741988_at) / Fold change /veh MBOAT4 (11741988_at) / RFU 11764193_at / Fold change /veh 11764193_at / RFU TMEM53 (11763286_at) / Fold change /veh TMEM53 (11763286_at) / RFU MAGEB2 (11727129_at) / Fold change /veh MAGEB2 (11727129_at) / RFU TMEM200A (11744735_a_at) / Fold change /veh TMEM200A (11744735_a_at) / RFU CCDC152 (11751479_a_at) / Fold change /veh CCDC152 (11751479_a_at) / RFU FAM211A (11726209_a_at) / Fold change /veh FAM211A (11726209_a_at) / RFU RGS16 (11746705_a_at) / Fold change /veh RGS16 (11746705_a_at) / RFU VCAN (11755009_s_at) / Fold change /veh VCAN (11755009_s_at) / RFU RHOB (11743442_s_at) / Fold change /veh RHOB (11743442_s_at) / RFU RGS16 (11720943_a_at) / Fold change /veh RGS16 (11720943_a_at) / RFU RGS16 (11720944_at) / Fold change /veh RGS16 (11720944_at) / RFU, VPS4B / Fold change vs veh, VPS4B / RFU, CREB1 / Fold change vs veh, CREB1 / RFU, DNAJC13 / Fold change vs veh, DNAJC13 / RFU, GNAQ / Fold change vs veh, GNAQ / RFU, CDK5R1 / Fold change vs veh, CDK5R1 / RFU, ZRANB3 / Fold change vs veh, ZRANB3 / RFU, CUL4A / Fold change vs veh, CUL4A / RFU, CCNY / Fold change vs veh, CCNY / RFU, UFL1 / Fold change vs veh, UFL1 / RFU, COG3 / Fold change vs veh, COG3 / RFU, DIAPH2 / Fold change vs veh, DIAPH2 / RFU, SKA2 / Fold change vs veh, SKA2 / RFU, AFF3 / Fold change vs veh, AFF3 / RFU, LMF1 / Fold change vs veh, LMF1 / RFU, IPO11 / Fold change vs veh, IPO11 / RFU, DFFB / Fold change vs veh, DFFB / RFU, FOXP1 / Fold change vs veh, FOXP1 / RFU, CARD8 / Fold change vs veh, CARD8 / RFU, STRN3 / Fold change vs veh, STRN3 / RFU, ADK / Fold change vs veh, ADK / RFU, RASSF2 / Fold change vs veh, RASSF2 / RFU, WIPF1 / Fold change vs veh, WIPF1 / RFU, LARP1B / Fold change vs veh, LARP1B / RFU, RASA1 / Fold change vs veh, RASA1 / RFU, RB1 / Fold change vs veh, RB1 / RFU, PPFIA1 / Fold change vs veh, PPFIA1 / RFU, MAT2A / Fold change vs veh, MAT2A / RFU, CCT5 / Fold change vs veh, CCT5 / RFU, WDR92 / Fold change vs veh, WDR92 / RFU, CUX1 / Fold change vs veh, CUX1 / RFU, TTC7A / Fold change vs veh, TTC7A / RFU, TMEM135 / Fold change vs veh, TMEM135 / RFU, DEPTOR / Fold change vs veh, DEPTOR / RFU, CPM / Fold change vs veh, CPM / RFU, DNAJB6 / Fold change vs veh, DNAJB6 / RFU, CACNA2D3 / Fold change vs veh, CACNA2D3 / RFU, DTX4 / Fold change vs veh, DTX4 / RFU, TFCP2 / Fold change vs veh, TFCP2 / RFU, GMCL1 /// GMCL1P1 / Fold change vs veh, GMCL1 /// GMCL1P1 / RFU, AEBP2 / Fold change vs veh, AEBP2 / RFU, SNHG1 /// SNORD22 /// SNORD25 /// SNORD26 /// SNORD27 /// SNORD28 /// SNORD29 /// SNORD31 / Fold change vs veh, SNHG1 /// SNORD22 /// SNORD25 /// SNORD26 /// SNORD27 /// SNORD28 /// SNORD29 /// SNORD31 / Fold change (Aza/veh), C12orf56 (ProbeSet 11735607_a_at) / Fold change (ACY-1035/veh), C12orf56 (ProbeSet 11735607_a_at) / Fold change (Aza/veh), FGFR1OP (ProbeSet 11751329_s_at) / Fold change (ACY-1035/veh), FGFR1OP (ProbeSet 11751329_s_at) / Fold change (Aza/veh), VPS36 (ProbeSet 11739960_a_at) / Fold change (ACY-1035/veh), VPS36 (ProbeSet 11739960_a_at) / RFU SYPL1 (11715823_x_at) / Fold change /veh SYPL1 (11715823_x_at) / RFU IGFBP7 (11715501_s_at) / Fold change /veh IGFBP7 (11715501_s_at) / RFU REEP3 (11722064_at) / Fold change /veh REEP3 (11722064_at) / RFU IGLL1 (11728026_x_at) / Fold change /veh IGLL1 (11728026_x_at): dose or concentration left out as unconfirmed
Conditions: MV-4-11 cells, 48 hours

Nc1ccc(-c2cccs2)cc1NC(=O)c1ccc2c(c1)cc(C1CC1)n2CCN1CCOCC1 [ACY-1035]
Fold change /veh VPS37D (11726825_at): 1.08
